Patent publication US20240239786A1, “COMPOSITIONS AND METHODS FOR THE TREATMENT AND PREVENTION OF CANCER” (Yale University, priority 2021, published 2024)

Test system: Hs 832(C).T cells
Assay: Caspase 3/7 assay, Hs 832(C).T
Format: cell-based
Conditions: benign ovarian cyst fibroblast cells Hs 832(C).T
Method: Cells were pre-treated with 30 μM DB4 for 1 hr and then treated with various concentrations of olaparib for 72 hr. Cell survival was determined by MTS cytotoxicity assay. Data are means±SD (N=3-4). […] EOB calculation was used to quantify the synergy of the combination of DB4 and various concentrations of olaparib in PEO1 or PEO4 cells as shown in FIG. 8A. EOB>0, synergism; EOB=0, additivity; EOB<0, antagonism. […] Cells were pre-treated with 30 μM DB4-F for 1 hr and then treated with various concentrations of olaparib for 72 hr. Cell survival was determined by MTS cytotoxicity assay. Data are means±SD (N=3-4). […] EOB calculation was used to quantify the synergy of the combination of DB4-F and various concentrations of olaparib in PEO1 or PEO4 cells as shown in FIG. 8B. […] Cell survival was determined by MTS cytotoxicity assay. […] Caspase 3/7 activity was expressed as RLU per μg/μl protein. […] Caspase 3/7 activity was expressed as RLU per μg/μl protein. […] Cells were treated and caspase 3/7 activity was measured as described in FIG. 8G and FIG. 8H.
Furthermore, the effects of DB4 on olaparib-induced apoptosis at 24 hr were evaluated. […]
The assay was performed as described previously (Lin Z P et al., 2018, PLOS One, 13:e0207399). […] Total protein concentration of cell lysates was determined as described above. Caspase 3/7 activity was expressed as luminescence units (RLU) per μg/μL protein for each sample.

## C=CCn1c(SCc2cccc(Cl)c2)nnc1C1CCN(Cc2nc3ccccc3s2)CC1 [DB4, 2-[(4-{4-allyl-5-[(3-chlorobenzyl)thio]-4H-1,2,4-triazol-3-yl}-1-piperidinyl)methyl]-1,3-benzothiazole]
  effect on apoptotic effects of olaparib (caspase 3/7): did not enhance the apoptotic effects of olaparib
